Reference: patent US20250340568A1, “SOLID FORMS OF A MACROCYCLIC COMPOUNDS AS CFTR MODULATORS AND THEIR PREPARATION” (Vertex Pharmaceuticals Incorporated, priority 2022, published 2025)

Biological target: T1, CFTR (F508del/MF-HBE cells) (Homo sapiens, UniProt P13569, DEL508-508)
T1 construct: human bronchial epithelial (HBE) cells derived from CF subjects heterozygous for F508del and a minimal function CFTR mutation; endogenous in cells; host or cells: primary human bronchial epithelial cells from CF subjects (F508del/MF genotype), differentiated at air-liquid interface
Assay: Ussing chamber assay of CFTR-mediated short-circuit currents (potentiator identification)
Assay type: cell-based
Details: incubated 18-24 hours at 37° C. with 10 μM (14S)-8-[3-(2-{dispiro[2.0.2.1]heptan-7-yl}ethoxy)-1H-pyrazol-1-yl]-... trione (Compound VII), 20% human serum, read-out: CFTR-modulating activity EC50
Procedure: Ussing Chamber Assay of CFTR-mediated short-circuit currents
Ussing chamber experiments were performed using human bronchial epithelial (HBE) cells derived from CF subjects heterozygous for F508del and a minimal function CFTR mutation (F508del/MF-HBE) and cultured as previously described (Neuberger T, Burton B, Clark H, Van Goor F Methods Mol Biol 2011:741:39-54). After four days the apical media was removed, and the cells were grown at an air liquid interface for >14 days prior to use.
To isolate the CFTR-mediated short-circuit (ISC) current, F508del/MF-HBE grown on Costar® Snapwell™ cell culture inserts were mounted in an Ussing chamber and the transepithelial ISC was measured under voltage-clamp recording conditions (Vhold=0 mV) at 37° C. The basolateral solution contained (in mM) 145 NaCl, 0.83 K2HPO4, 3.3 KH2PO4, 1.2 MgCl2, 1.2 CaCl2), 10 Glucose, 10 HEPES (pH adjusted to 7.4 with NaOH) and the apical solution contained (in mM) 145 NaGluconate, 1.2 MgCl2, 1.2 CaCl2), 10 glucose, 10 HEPES (pH adjusted to 7.4 with NaOH) and 30 μM amiloride to block the epithelial sodium channel. […] The CFTR-mediated ISC (μA/cm^2) for each condition was determined from the peak forskolin response to the steady-state current following inhibition.
The activity of the CFTR potentiator compounds on the CFTR-mediated ISC was determined in Ussing chamber studies as described above. […]

T1 sequence (P13569 with tags, fused parts or gaps DEL508-508): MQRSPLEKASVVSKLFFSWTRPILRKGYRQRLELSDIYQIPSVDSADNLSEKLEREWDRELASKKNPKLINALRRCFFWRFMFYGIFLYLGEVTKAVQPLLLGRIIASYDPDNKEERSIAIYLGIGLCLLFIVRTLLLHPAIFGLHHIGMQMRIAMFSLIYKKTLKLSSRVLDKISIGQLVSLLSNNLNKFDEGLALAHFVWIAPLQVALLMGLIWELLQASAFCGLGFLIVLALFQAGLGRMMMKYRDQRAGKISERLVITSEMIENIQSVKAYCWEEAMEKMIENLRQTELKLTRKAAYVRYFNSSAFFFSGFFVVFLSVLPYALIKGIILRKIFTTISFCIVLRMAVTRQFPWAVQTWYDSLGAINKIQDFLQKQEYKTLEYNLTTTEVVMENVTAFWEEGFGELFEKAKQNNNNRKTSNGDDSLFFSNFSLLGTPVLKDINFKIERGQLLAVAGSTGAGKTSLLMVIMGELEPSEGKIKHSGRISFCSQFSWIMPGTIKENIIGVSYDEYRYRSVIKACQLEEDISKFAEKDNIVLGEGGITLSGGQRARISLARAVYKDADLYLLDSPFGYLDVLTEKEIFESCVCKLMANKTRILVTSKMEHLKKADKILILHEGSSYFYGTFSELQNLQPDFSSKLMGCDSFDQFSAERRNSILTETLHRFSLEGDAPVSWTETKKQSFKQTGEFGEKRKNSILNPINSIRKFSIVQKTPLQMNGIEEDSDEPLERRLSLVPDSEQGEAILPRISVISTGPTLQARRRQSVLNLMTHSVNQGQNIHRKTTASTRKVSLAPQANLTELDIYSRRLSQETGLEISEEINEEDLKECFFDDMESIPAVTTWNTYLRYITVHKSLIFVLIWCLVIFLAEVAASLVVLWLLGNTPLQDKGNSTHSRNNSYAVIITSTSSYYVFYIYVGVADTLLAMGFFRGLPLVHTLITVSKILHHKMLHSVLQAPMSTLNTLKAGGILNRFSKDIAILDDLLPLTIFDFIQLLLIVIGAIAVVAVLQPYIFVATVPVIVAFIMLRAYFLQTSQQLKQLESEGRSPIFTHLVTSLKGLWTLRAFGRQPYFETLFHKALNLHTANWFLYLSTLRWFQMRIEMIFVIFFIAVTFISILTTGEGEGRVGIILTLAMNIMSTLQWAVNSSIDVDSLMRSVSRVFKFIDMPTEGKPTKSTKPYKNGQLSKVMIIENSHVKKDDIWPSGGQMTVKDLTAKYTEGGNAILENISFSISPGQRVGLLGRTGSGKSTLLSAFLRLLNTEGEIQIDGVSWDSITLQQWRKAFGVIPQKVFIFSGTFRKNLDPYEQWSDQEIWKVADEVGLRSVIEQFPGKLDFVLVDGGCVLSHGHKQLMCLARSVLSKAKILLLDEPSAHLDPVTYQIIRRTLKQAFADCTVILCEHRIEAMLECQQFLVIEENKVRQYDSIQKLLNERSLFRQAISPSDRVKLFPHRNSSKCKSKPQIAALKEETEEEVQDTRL

EC50: < 500 nM
SMILES: CC1(C)CCCCC[C@](O)(C(F)(F)F)C2=NN=C(O2)c2nc(c(C(F)(F)F)cc2N)N1 [Compound I, (6R)-17-amino-12,12-dimethyl-6,15-bis(trifluoromethyl)-19-oxa-3,4,13,18-tetrazatricyclo[12.3.1.12,5]nonadeca-1(18),2,4,14,16-pentaen-6-ol]
